Tested on: patients with postpartum depression (PPD)
Assay: Clinical trial of inhaled 5-MeO-DMT in postpartum depression (one patient so far)
Experimental: The single-arm, open-label clinical trial will involve 15 adult female patients with clinically diagnosed postpartum depression (PPD).
The second dose (12 mg) will only be administered if: • a. […] The 6 mg dose was safe and well-tolerated according to the investigator, • c. Any psychoactive effects (PsE) of the prior dose have subsided, and • d. Pre-dose vital parameters and forced expiratory volume in one second (FEV1) are in normal range, or if outside of the normal range, are not clinically significant according to the investigator. • 3. Similarly, a third dose (18 mg) will only be administered if: • a. […] The 12 mg dose was safe and well-tolerated according to the investigator, and • c. Any PsE of the prior dose have subsided, and • d. Pre-dose vital parameters and forced expiratory volume in one second (FEV1) are in normal range, or if outside of the normal range, are not clinically significant according to the investigator.
The patients will be assessed for a peak psychedelic experience (based on a patient-scored visual analogue scale, the PE scale), sedation, and other endpoints after dosing. Follow-up visits are planned for Day 1, and Day 7 after the dosing day.
The following criteria must be met by all patients considered for clinical trial participation: • 1. Is female and in the age range between 18 and 45 years (inclusive) at screening. • 2. Has a body mass index (BMI) in the range of 18.5 and 35 kg/m^2 (inclusive) at screening. • 3. Meets the trial criteria for PPD as assessed by a trial psychiatrist or registered psychologist: • a. Diagnosis of Major Depressive Disorder without psychotic features, confirmed by the Mini-International Neuropsychiatric Interview (MINI), with peri-partum onset that began no earlier than gestation and no later than the first 4 weeks postpartum. • b. Has a Montgomery-Åsberg Depression Rating Scale (MADRS) total score of equal to or greater than 28 at screening and pre-dose on Day 0. • 6. […] Patients must have a negative pregnancy test at screening and on the pre-test day (Day −1). • 5. Is willing to delay start of other antidepressant or anxiety medication until after the end of the trial at Day 7 and agrees to keep any psychotherapy unchanged during the trial.
A potential patient who meets any of the following key exclusion criteria will be excluded from participation in this trial: • 1. Has, based on history, psychiatric assessment, and evaluation of the MINI, a current or prior diagnosis of bipolar disorder, a manic or hypomanic episode, a psychotic disorder, Major Depressive Disorder (MDD) or other mood disorder with psychotic features, obsessive compulsive disorder, post-traumatic stress disorder (PTSD), autism spectrum disorder, borderline personality disorder, schizophrenia, delusional disorder, paranoid personality disorder, schizoaffective disorder, clinically significant intellectual disability, or any other psychiatric comorbidity that renders the patient unsuitable for the trial according to the investigator's judgment. • 2. Has one or more first or second degree relatives with a current or previously diagnosed bipolar disorder, psychotic disorder or other mood disorder (including MDD) with psychotic features. • 3. Is in the judgement of a trial psychiatrist or registered psychologist, at significant risk for suicide based on history, psychiatric assessment, and evaluation of suicidal ideation and suicidal behaviour based on the Columbia-Suicide Severity Rating Scale (C-SSRS). • 4. Has taken anti-depressive medication within 14 days or 5 half-lives (whichever is longer) prior to dosing (exception: within the last 5 weeks in the case of fluoxetine). • 5.

`COc1ccc2[nH]cc(CCN(C)C)c2c1` [5-MeO-DMT] was tested, and the “ECG (3 hours), safety laboratory analyses (7 days), CADSS (3 hours, 1 day, 7 days)” value was “unremarkable”, the “Reported adverse events (cramping left abdominal pain and headache, Day 0)” value was “mild, short-lasting and resolved spontaneously” and the “Tolerability of the inhalation procedure” value was “well tolerated with no inhalation-related adverse events”. The “Total MADRS improvement” value (2 hr, baseline 29) was 24, the “Total MADRS score” value (2 hr, baseline 29) was 5 and the “BPRS Tension improvement” value (Day 1, baseline 6) was 5. For the same molecule, the “Total MADRS improvement” value (Day 1, baseline 29) was 29, the “Total MADRS score” value (Day 1, baseline 29) was 0 and the “BIMF item 16 (I worry about how other people judge me (as a mother)) score” value (Day 7, Day 0 score 3) was 5. The “BIMF item 11 (I take a little time each week to do something for myself) score” value (Day 7, Day 0 score 5) was 6, the “BIMF functional domain Adjustment score” value (Day 7, Day 0 score 5, maximum possible 12) was 6 and the “BIMF functional domain Self-Care score” value (Day 7, Day 0 score 9, maximum possible 18) was 13. The “BIMF functional domain Infant Care score” value (Day 7, Day 0 score 12, maximum possible 12) was 12, the “BIMF functional domain Mother-Child Interaction score” value (Day 7, Day 0 score 15, maximum possible 18) was 17 and the “BIMF functional domain Social Support score” value (Day 7, Day 0 score 17, maximum possible 18) was 18. For the same molecule, the “BIMF functional domain Management score” value (Day 7, Day 0 score 28, maximum possible 36) was 33, the “BIMF functional domain Psychological Well-being score” value (Day 7, Day 0 score 44, maximum possible 60) was 53 and the “Total MADRS improvement” value (Day 7, baseline 29) was 28. For the same molecule, the “Total MADRS score” value (Day 7, baseline 29) was 1, the “BIMF total score improvement” value (Day 7, from 92 to 105 of possible 120) was 14% and the “BIMF TOTAL Δ (Day 7)” value (Day 7 vs Day 0) was 13. The “BIMF functional domain Adjustment % Improvement” value (Day 7 vs Day 0) was 20.00%, the “BIMF functional domain Infant Care % Improvement” value (Day 7 vs Day 0) was 0.00% and the “BIMF functional domain Management % Improvement” value (Day 7 vs Day 0) was 18%. The “BIMF functional domain Self-Care % Improvement” value (Day 7 vs Day 0) was 44%, the “BPRS Tension improvement” value (Discharge, baseline 6) was 5 and the “Standard criteria for MADRS response (at least 50% improvement) and MADRS remission (total score <=10)” value (IDR 6 mg then 12 mg) was “fulfilled”. The “Time to clinical remission after administration” value (IDR 6 mg then 12 mg) was no more than 2 h and the “Changes in vital parameters” value (except temporary, clinically non-relevant increase in heart rate and blood pressure shortly after administration) was “no other noteworthy changes in vital parameters”.
